# Measurements: patent US20230227411A1, “Benzimidazole Derivatives” (Hoffmann-La Roche Inc., priority 2020, published 2023)
# Biological target: T1, human cGAS (residues 161-522) (Homo sapiens, UniProt Q8N884)
# T1 construct: Recombinantly expressed purified human cGAS (residues 161-522) was used at 25 nM; made in house
# Assay: Malachite Green assay to measure cGAS activity
# Type: biochemical
# Conditions: coupled enzymatic assay, phosphate detection by Malachite Green; 25 nM cGAS, 80 μM ATP, 80 μM GTP, 100 nM ISD, 4 hour at RT
# Experimental: Malachite Green Assay to Measure cGAS Activity
# Compounds were tested for cGAS inhibition in a coupled enzymatic assay based on Phosphate detection by Malachite Green. Final assay conditions were 20 mM TRIS pH 7.5 (Applichem), 5 mM MgCl2 (Sigma) and 0.01% BSA (Sigma) supplemented with 80 μM ATP (Sigma), 80 μM GTP (Sigma) and 100 nM Interferon Stimulating DNA (ISD) (Microsynth). Recombinantly expressed purified human cGAS (residues 161-522) was used at 25 nM.
# All compounds were prepared as 10 mM stock solutions in DMSO and a 16 pt dilution series in DMSO with a dilution factor of 2.5 was prepared. 1 μL of DMSO dilution series was transferred to 32.3 μL reaction buffer, mixed by pipetting up/down, spun for 1 minute at 3000 rpm and was visually inspected for precipitation. 5 μL of 3-fold enzyme stock solution were transferred to an empty 384-well Black/Clear Flat Bottom Polystyrene NBS (Corning) rows 3-24. Rows 1-2 were filled with assay buffer. Plates were spun 10 seconds at 1000 rpm (164×g). 5 μL of compound intermediate dilution was added and mixed by pipetting up/down to rows 3-24. Rows 1-2 were filled with 3.1% DMSO assay buffer. Plates were spun 10 seconds at 1000 rpm (164×g). 5 μL 3-fold Nucleotide/DNA mix was added to all wells to start the reaction. Plates were spun 10 seconds at 1000 rpm (164×g) and incubated for 4 hour at room temperature (RT) in the dark. 5 μL 4 U/mL PPase (Sigma) were added to all wells. Plates spun 10 seconds at 1000 rpm (164×g). 10 μL BioMol green Solution (Enzo Life Sciences) was added to all wells. Plates spun 10 seconds at 1000 rpm (164×g) and incubated 30 minutes at RT in the dark. Absorbance data was collected 620 nm on an EnVision Multilable Reader (Perkin Elmer) and the following measurement settings were used: excitation filter photometric was 620 nm; excitation from the top; measurement height was 1 mm; number of flashes was 30; number of flashes integrated was 1.
# All plates are checked for abnormalities and outliers in the Blank Control (no protein, row 1) and the Neutral Control (no compound, row 2) are excluded using the 3*SD rule. Data was normalized to 0 and 100% by Blank and Neutral Control and each curve was fitted and judged using the 4 parameter logistic equation to determine the IC50 for cGAS inhibition.
# Table 1 provides IC50 values (μM) for cGAS inhibition obtained for particular examples of the present invention as measured by the above-described assay.
# T1 sequence (Q8N884 161-522): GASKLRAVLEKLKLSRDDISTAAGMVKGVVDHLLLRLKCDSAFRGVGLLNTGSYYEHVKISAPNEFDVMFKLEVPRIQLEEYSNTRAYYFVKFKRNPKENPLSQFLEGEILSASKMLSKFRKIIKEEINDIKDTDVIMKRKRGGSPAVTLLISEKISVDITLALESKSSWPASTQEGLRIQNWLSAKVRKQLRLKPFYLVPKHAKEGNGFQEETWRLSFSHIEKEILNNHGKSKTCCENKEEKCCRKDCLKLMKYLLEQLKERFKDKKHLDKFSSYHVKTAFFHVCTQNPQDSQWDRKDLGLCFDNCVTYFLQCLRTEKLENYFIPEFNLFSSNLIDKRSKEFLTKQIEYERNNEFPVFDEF
row,Structure (SMILES),IC50 [nM]
1,"Cc1ccc(-c2cc(C(=O)O)c3c(c2)ncn3-c2ccccc2)c(Cl)c1 [Example 1, 5-(2-Chloro-4-methylphenyl)-1-phenyl-1H-benzo[d]imidazole-7-carboxylic acid]",1120
2,"Cc1ccc(-c2cc(C(=O)O)c3c(c2)ncn3Cc2cccnc2)c(Cl)c1 [Example 6, 5-(2-Chloro-4-methylphenyl)-1-(pyridin-3-ylmethyl)-1H-benzo[d]imidazole-7-carboxylic acid]",2070
3,"Cc1ccc(-c2cc(C(=O)O)c3c(c2)ncn3Cc2ccncc2)c(Cl)c1 [Example 5, 5-(2-Chloro-4-methylphenyl)-1-(pyridin-4-ylmethyl)-1H-benzo[d]imidazole-7-carboxylic acid]",870
4,"CC(=O)NCCCn1cnc2cc(-c3ccc(C)cc3Cl)cc(C(=O)O)c21 [Example 2, 1-(3-Acetamidopropyl)-5-(2-chloro-4-methylphenyl)-1H-benzo[d]imidazole-7-carboxylic acid]",2340
5,"Cc1ccc(-c2cc(C(=O)O)c3c(c2)ncn3CC(F)(F)F)c(Cl)c1 [Example 13, 5-(2-Chloro-4-methylphenyl)-1-(2,2,2-trifluoroethyl)-1H-benzo[d]imidazole-7-carboxylic acid]",3290
6,"COCCn1cnc2cc(-c3ccc(C)cc3Cl)cc(C(=O)O)c21 [Example 9, 5-(2-Chloro-4-methylphenyl)-1-(2-methoxyethyl)-1H-benzo[d]imidazole-7-carboxylic acid]",3040
7,"Cc1ccc(-c2cc(C(=O)O)c3c(c2)ncn3Cc2ccccn2)c(Cl)c1 [Example 7, 6-(2-Chloro-4-methylphenyl)-3-(pyridin-2-ylmethyl)benzimidazole-4-carboxylic acid]",1760
8,"Cc1ccc(-c2cc(C(=O)O)c3c(c2)ncn3CCCNS(C)(=O)=O)c(Cl)c1 [Example 3, 5-(2-Chloro-4-methylphenyl)-1-(3-(methylsulfonamido)propyl)-1H-benzo[d]imidazole-7-carboxylic acid]",1340
9,"Cc1ccc(-c2cc(C(=O)O)c3c(c2)ncn3CCN(C)C)c(Cl)c1 [Example 8, 5-(2-Chloro-4-methylphenyl)-1-(2-(dimethylamino)ethyl)-1H-benzo[d]imidazole-7-carboxylic acid]",2020

# The remaining compounds from weak to strong by IC50, led by results:
row,IC50 [nM],Structure (SMILES)
1,4790,"Cc1ccc(-c2cc(C(=O)O)c3c(c2)ncn3C2CC2)c(Cl)c1 [Example 10, 5-(2-Chloro-4-methylphenyl)-1-cyclopropyl-1H-benzo[d]imidazole-7-carboxylic acid]"
2,2810,"CCn1cnc2cc(-c3ccc(C)cc3Cl)cc(C(=O)O)c21 [Example 12, 5-(2-Chloro-4-methylphenyl)-1-ethyl-1H-benzo[d]imidazole-7-carboxylic acid]"
3,2590,"Cc1ccc(-c2cc(C(=O)O)c3c(c2)ncn3Cc2cccc(Cl)c2)c(Cl)c1 [Example 4, 5-(2-Chloro-4-methylphenyl)-1-(3-chlorobenzyl)-1H-benzo[d]imidazole-7-carboxylic acid]"
4,2410,"Cc1ccc(-c2cc(C(=O)O)c3c(c2)ncn3Cc2ccccc2)c(Cl)c1 [Example 15, 1-Benzyl-5-(2-chloro-4-methylphenyl)-1H-benzo[d]imidazole-7-carboxylic acid]"
5,1930,"CCn1cnc2cc(-c3cc(F)c(C)cc3Cl)cc(C(=O)O)c21 [Example 11, 5-(2-Chloro-5-fluoro-4-methylphenyl)-1-ethyl-1H-benzo[d]imidazole-7-carboxylic acid]"
6,1860,"Cc1ccc(-c2cc(C(=O)O)c3c(c2)ncn3CCc2ccccc2)c(Cl)c1 [Example 14, 5-(2-Chloro-4-methylphenyl)-1-phenethyl-1H-benzo[d]imidazole-7-carboxylic acid]"
